Data as given in US20070060636A1, “High enantiomeric purity dexanabinol for pharmaceutical compositions” (priority 2002, published 2007).

Experiment: single dose toxicity and pharmacokinetics, rabbit
Assay type: in vivo, New Zealand White rabbits
Conditions: for AUC(0-inf) / Cmax: plasma, single i.v. 25 mg/kg (NOAEL); for AUC∞ Ratio to Phase I / Cmax Ratio to Phase I / Cmax Ratio to Phase II: single i.v. 25 mg/kg; for AUC∞ Ratio to Phase I / Cmax Ratio to Phase I: vs human 150 mg Phase I; for Cmax Ratio to Phase II: vs human 150 mg Phase II
Protocol: The pharmacokinetics of dexanabinol of high enantiomeric purity formulated in CREMOPHOR EL®:ethanol as described in Example 4 were investigated in rats, rabbits, and monkeys following intravenous administration of single doses, and 14 and 28 days of repeated dosing. Human pharmacokinetics was studied during Phase I and Phase II clinical studies. Dexanabinol used in the pharmacokinetic studies was formulated as drug concentrates of 50 and 100 mg/ml and diluted with sterile 0.9% NaCl solution prior to intravenous (i.v.) administration to the desired final doses. Determination of dexanabinol concentrations in plasma and brain extracts was carried out using a validated Gas Chromatography-Mass Spectra (GC-MS) assay following solid phase extraction of the drug and derivatization. The limit of quantitation of the assay is 0.1 ng/ml.
Pharmacokinetic parameters were estimated by a non-compartmental method using WinNonlin Professional version 3.2 (Pharsight Corp., Mountain View, Calif.). The maximum plasma concentration (Cmax), when the drug is administered by infusion, is the concentration at the end of infusion. The Cmax following intravenous bolus administration is the value estimated by the software to be the concentration at t=0. The terminal slope (X) was estimated by linear regression through the last time points and used to calculate the terminal half-life (t1/2) from the following equation: t1/2=0.693/λ The area under the curve from time of dosing through the last time point (AUCz) was calculated by the linear trapezoid method. The AUC extrapolated to infinity (AUC∞) was calculated from the following equation: AUC∞=AUCz+Cz/λ where Cz is the concentration at the last time point predicted by the linear regression. AUC∞ was normalized for dose (mg/kg) and presented as AUC∞/Dose. Mean residence time (MRT), when the drug is administered by infusion is described by the following equation: MRT=(AUMC/AUC)−(TI)/2 Mean residence time after i.v. bolus administration is described by the following equation: MRT=(AUMC/AUC) where AUMC is the area under the first moment curve and TI is the length of infusion. Plasma clearance (CL), and the apparent volume of distribution at steady state (Vss) were calculated from the following equations: CL=Dose/AUC∞ Vss=MRT×CL
Table 6 summarizes the maximum plasma concentration (Cmax) and the area under the plasma concentration versus time curve (AUC) observed at the NOAEL doses cited above, as well as the animal to human exposure ratios (ER) for dexanabinol of high enantiomeric purity, expressed as the ratio of the pharmacokinetic (PK) parameter to that observed for a 150 mg dose in a Phase I study in human volunteers and in Phase II study in patients suffering from severe traumatic brain injury (TBI).

[1] = New Zealand White, iv, rabbit female
[2] = New Zealand White, iv, rabbit male
[3] = both sexes, New Zealand White, iv, rabbit male & female

CCCCCCC(C)(C)c1cc(O)c2c(c1)OC(C)(C)[C@H]1CC=C(CO)C[C@H]21 [dexanabinol, 1,1-dimethylheptyl-(3S,4S)-7-hydroxy-Δ^6-tetrahydrocannabinol]
AUC(0-inf) [1]: 16200 ng·h/mL
Cmax [1]: 34500 ng/mL
AUC(0-inf) [2]: 20100 ng·h/mL
Cmax [2]: 33800 ng/mL
NOAEL (New Zealand White, rabbit, in vivo, iv, single dose i.v., read-out: no observed adverse effect level (NOAEL)): 25 mg/kg
AUC(0-inf) [3]: 18200 ng·h/mL
Cmax [3]: 33400 ng/mL
AUC∞ Ratio to Phase I (rabbit female): 5.1
Cmax Ratio to Phase I (rabbit female): 6.9
Cmax Ratio to Phase II (rabbit female): 17.6
AUC∞ Ratio to Phase I (rabbit male & female): 5.7
Cmax Ratio to Phase I (rabbit male & female): 6.7
Cmax Ratio to Phase II (rabbit male & female): 17.0
AUC∞ Ratio to Phase I (rabbit male): 6.3
Cmax Ratio to Phase I (rabbit male): 6.8
Cmax Ratio to Phase II (rabbit male): 17.2
